The source of these data is patent US7659394B2 (Pfizer Inc, priority 2004, dated 2010).

Where only a bound is given, the exact number is not on record here.

Test [1] addresses T1, human seritonin transporter (Homo sapiens, UniProt P31645).
T1 construct: host or cells: HEK-293
Kind of test: hSERT receptor binding ([125I]-RTI-55 radioligand binding). The conditions noted are these: membranes of HEK-293 cells transfected with human seritonin transporter, IC50 converted to Ki by Cheng-Prusoff, read-out: SERT (Ki). The source says: (§1) The ability of the compounds of this invention to bind to the hNET and serotonin SERT receptor can be determined using conventional radiolig and receptor binding assays. The receptors can be heterologously expressed in cell lines and experiments conducted in membrane preparations from the cell lines using procedures outlined below. IC50 concentrations can be determined by nonlinear regression of concentration-dependent reduction in specific binding. The Cheng-Prussoff equation can be used to convert the IC50 to Ki concentrations.
Cell pastes of HEK-293 cells transfected with the human seritonin transporter were supplied by the Pfizer Ann Arbor Protein Expression and Production group. […] Aliquots of membranes (5 mg/ml protein) were stored in liquid nitrogen until used.
The reaction was incubated by gentle agitation for 90 min at room temperature and was terminated by filtration through Whatman GF/C filter plates using a Brandel 96-well plate harvester. […] Test compounds were run in duplicate, and specific binding was defined as the difference between binding in the presence and absence of […] citalopram.
(§2) Excel and GraphPad Prism software were used for data calculation and analysis. IC50 values were converted to Ki values using the Cheng-Prusoff equation.

In test [2] the target is T2, human norepinephrine transporter (Homo sapiens, UniProt P23975).
T2 construct: host or cells: HEK-293
T2 sequence (P23975 whole entry): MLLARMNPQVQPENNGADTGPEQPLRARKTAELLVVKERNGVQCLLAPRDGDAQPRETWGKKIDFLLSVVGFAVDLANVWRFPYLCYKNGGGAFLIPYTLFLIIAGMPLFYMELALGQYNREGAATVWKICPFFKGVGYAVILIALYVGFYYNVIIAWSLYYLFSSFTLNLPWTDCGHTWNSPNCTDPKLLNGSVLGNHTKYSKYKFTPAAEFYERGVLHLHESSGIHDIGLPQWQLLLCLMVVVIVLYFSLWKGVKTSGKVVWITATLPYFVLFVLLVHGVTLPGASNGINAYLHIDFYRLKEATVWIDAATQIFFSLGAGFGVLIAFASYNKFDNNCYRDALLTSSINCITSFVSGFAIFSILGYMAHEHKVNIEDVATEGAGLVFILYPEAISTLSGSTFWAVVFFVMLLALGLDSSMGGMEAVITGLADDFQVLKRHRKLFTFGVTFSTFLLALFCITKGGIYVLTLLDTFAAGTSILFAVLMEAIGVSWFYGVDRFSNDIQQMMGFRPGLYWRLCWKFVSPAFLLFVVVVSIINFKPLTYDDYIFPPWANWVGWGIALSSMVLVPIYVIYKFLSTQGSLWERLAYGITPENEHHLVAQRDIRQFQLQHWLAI
Briefly: hNET receptor binding ([125I]-RTI-55 radioligand binding). The conditions noted are these: membranes of HEK-293 cells transfected with human norepinephrine transporter, IC50 converted to Ki by Cheng-Prusoff, read-out: hNET (Ki).
Excerpt: as §1
Cell pastes of HEK-293 cells transfected with the human norepinephrine transporter were supplied by the Pfizer Ann Arbor Protein Expression and Production group. […] Aliquots of membranes (5 mg/ml protein) were stored in liquid nitrogen until used.
The reaction was incubated by gentle agitation for 90 min at room temperature and was terminated by filtration through Whatman GF/C filter plates using a Brandel 96-well plate harvester. […] Test compounds were run in duplicate, and specific binding was defined as the difference between binding in the presence and absence of 10 μM desipramine.
as §2

T1 sequence (P31645 whole entry): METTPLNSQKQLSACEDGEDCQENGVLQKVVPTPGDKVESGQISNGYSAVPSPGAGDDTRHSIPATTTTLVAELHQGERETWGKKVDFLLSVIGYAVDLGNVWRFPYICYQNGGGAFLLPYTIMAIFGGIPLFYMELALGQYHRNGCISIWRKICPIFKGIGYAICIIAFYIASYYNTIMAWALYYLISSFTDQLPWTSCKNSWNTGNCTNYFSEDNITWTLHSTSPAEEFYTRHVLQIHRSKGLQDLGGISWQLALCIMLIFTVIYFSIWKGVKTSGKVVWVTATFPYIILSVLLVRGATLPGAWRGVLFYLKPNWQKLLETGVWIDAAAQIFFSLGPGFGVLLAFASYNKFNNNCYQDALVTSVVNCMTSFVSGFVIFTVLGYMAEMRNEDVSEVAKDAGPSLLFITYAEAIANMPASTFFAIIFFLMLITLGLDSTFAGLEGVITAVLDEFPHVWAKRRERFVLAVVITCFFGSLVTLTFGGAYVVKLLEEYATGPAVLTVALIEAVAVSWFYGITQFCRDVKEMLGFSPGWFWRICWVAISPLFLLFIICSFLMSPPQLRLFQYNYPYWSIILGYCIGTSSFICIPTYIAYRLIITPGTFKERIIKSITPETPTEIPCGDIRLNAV

Turning to `Fc1ccccc1OC(c1cccnc1)[C@@H]1CNCCO1` (mixture of isomers) [Example 23, (S)-2-[(S)-(2-Fluorophenoxy)-pyridin-3-yl-methyl]-morpholine], the figures for the Ki in test [1] and in test [2] were 2630 nM and 51 nM, respectively.
For `COc1cccc(F)c1OC(c1cccnc1)[C@H]1CNCCO1` (mixture of isomers) [Example 31, (2R,3R) and (R)-2-[(S)-(2-Fluoro-6-methoxy-phenoxy)-pyridin-3-yl-methyl]-morpholine], in that order: 348 nM and 85 nM.
Consider `Fc1ccc(OC(C2CC2)[C@@H]2CNCCO2)c(F)c1` (mixture of isomers) [Example 99, (2S)-2-[cyclopropyl(2,4-difluorophenoxy)methyl]morpholine], for which the figures for the Ki in test [1] and in test [2] were 1270 nM and 880 nM, respectively.
For `Fc1cccc(F)c1OC(Cc1ccccc1)[C@@H]1CNCCO1` (mixture of isomers) [Example 101, (2S)-2-[1-(2,6-difluorophenoxy)-2-phenylethyl]morpholine], in that order: 912 nM and 66 nM.
In the case of `CCCC(Oc1ccccc1OCC)[C@@H]1CNCCO1` (mixture of isomers) [Example 104, (2S)-2-[(1S)-1-(2-ethoxyphenoxy)butyl]morpholine], the Ki worked out at 9790 nM in test [1] and 2390 nM in test [2].
As for `CCOc1ccccc1OC(CC(C)C)[C@@H]1CNCCO1` (mixture of isomers) [Example 105, (2S)-2-[(1S)-1-(2-ethoxyphenoxy)-3-methylbutyl]morpholine], the figures for the Ki in test [1] and in test [2] were 5590 nM and 1500 nM, respectively.
In the case of `CCOc1ccccc1OC(CC)[C@@H]1CNCCO1` (mixture of isomers) [Example 106], the Ki is at least 10000 nM in test [1] and 54 nM in test [2].
Regarding `Cc1coc(C(Oc2c(F)cccc2F)[C@@H]2CNCCO2)n1` (mixture of isomers) [Example 134, (2S)-2-[(2,6-difluorophenoxy)(4-methyl-1,3-oxazol-2-yl)methyl]morpholine], the Ki was at least 10000 nM in test [1] and 18 nM in test [2].
For `CCOc1ncccc1OC(CC)[C@@H]1CNCCO1` (mixture of isomers) [Example 136, (2S)-2-{1-[(2-ethoxypyridin-3-yl)oxy]propyl}morpholine], in that order: 6140 nM and 102 nM.
Regarding `Fc1cccc(F)c1OC(c1cc2ccccc2o1)[C@@H]1CNCCO1` (mixture of isomers) [Example 143, (2S)-2-[1-benzofuran-2-yl(2,6-difluorophenoxy)methyl]morpholine], the values for the Ki in test [1] and in test [2] were 3320 nM and 896 nM, respectively.
For `Fc1cccc(F)c1OC(C1=CCCC1)[C@@H]1CNCCO1` (mixture of isomers) [Example 146, (2S)-2-[(S)-cyclopent-1-en-1-yl(2,6-difluorophenoxy)methyl]morpholine], in that order: 3700 nM and 20 nM.
For `CCOc1ccccc1OC(c1ncco1)[C@@H]1CNCCO1` (mixture of isomers) [Example 195, (S)-2-[(2-ethoxyphenoxy)(1,3-oxazol-2-yl)methyl]morpholine], in that order: 7060 nM and 10 nM.
On the same counts, the results for `Fc1cccc(F)c1OC(c1ncco1)[C@@H]1CNCCO1` (mixture of isomers) [Example 196, (S)-2-[(2,6-difluorophenoxy)(1,3-oxazol-2-yl)methyl]morpholine] are at least 10000 nM and 9 nM.
As to `COc1cccc(F)c1OC(c1cccnc1)[C@H]1CNCCO1` (mixture of isomers) [Example 202, (2R)-2-[(2-fluoro-6-methoxyphenoxy)(pyridin-3-yl)methyl]morpholine], the figures for the Ki in test [1] and in test [2] were 722 nM and 45 nM, respectively.
`Cc1ccccc1-c1ccccc1OCC1CNCCO1` (racemic) [Example 88, 2-(2′-Methyl-biphenyl-2-yloxymethyl)-morpholine]: the results for the Ki in test [1] and in test [2] were at least 10000 nM and 633 nM, respectively.
On the same counts, the results for `N#Cc1ccccc1O[C@@H](c1ccccn1)[C@@H]1CNCCO1` (single isomer, unassigned) [Example 22 (2S, 3R)] are 6670 nM and 4820 nM.
For `CCOc1ccccc1O[C@H](c1cccnc1)[C@@H]1CNCCO1` (single isomer, unassigned) [Example 25], in that order: at least 10000 nM and 124 nM.
In the case of `Cc1ccc(-c2cc(F)ccc2OCC2CNCCO2)cc1` (single isomer, unassigned) [Example 75], the figures for the Ki in test [1] and in test [2] were 849 nM and 22 nM, respectively.
On to `Fc1ccccc1OC(c1ccccn1)[C@@H]1CNCCO1` (single isomer, unassigned) [Example 120], for which the Ki is at least 10000 nM in test [1] and 10 nM in test [2].
Regarding `Fc1ccccc1OC(c1ccccn1)[C@@H]1CNCCO1` (single isomer, unassigned) [Example 121], the Ki in test [1] is at least 10000 nM; in test [2], 470 nM.
In the case of `Fc1ccc(OC(c2cccnc2)C2CNCCO2)c(Cl)c1` (stereo in doubt) [Example 19, (S)-2-[(R)-(2-Chloro-4-fluoro-phenoxy)-pyridin-3-yl-methyl]-morpholine], the Ki in test [1] was 74 nM; in test [2], 1020 nM.
Take `c1ccc(C(Oc2ccc3ccoc3c2)C2CNCCO2)cc1` (stereo in doubt) [Example 45, (R)-2-[(S)-(Benzofuran-6-yloxy)-phenyl-methyl]-morpholine]: the values for the inhibitory constant (Ki) in test [1] and in test [2] were 45 nM and 10 nM, respectively.
Regarding `CCOc1ccccc1OC(c1cccc(F)c1)C1CNCCO1` (stereo in doubt) [Example 70, (R)-2-[(S)-(2-Ethoxy-phenoxy)-(3-fluoro-phenyl)-methyl]-morpholine], the Ki in test [1] was found to be 818 nM; in test [2], 11 nM.
For `Fc1ccc(Oc2nccnc2OCC2CNCCO2)cc1` (stereo in doubt) [Example 78, (S)-2-[3-(4-Fluoro-phenoxy)-pyrazin-2-yloxymethyl]-morpholine], in that order: at least 10000 nM and 7970 nM.
Consider `CCOc1ccccc1OC(c1cccc[n+]1[O-])[C@@H]1CNCCO1` (stereo in doubt) [Example 100, (2S)-2-[(S)-(2-ethoxyphenoxy)(1-oxidopyridin-2-yl)methyl]morpholine], for which the Ki in test [1] was at least 10000 nM; in test [2], 152 nM.
For `Fc1cccc(C2CC2)c1O[C@@H](c1ccccc1)C1CNCCO1` (stereo in doubt) [Example 184, (2S)-2-[(S)-(2-cyclopropyl-6-fluorophenoxy)(phenyl)methyl]morpholine], in that order: 460 nM and 6 nM.
As for `FC(F)(F)Oc1ccccc1O[C@@H](c1ccccc1)[C@@H]1CNCCO1` [Example 1, (S)-2-[(S)-Phenyl-(2-trifluoromethoxy-phenoxy)-methyl]-morpholine], the Ki in test [1] worked out at 3940 nM; in test [2], 9.9 nM.
In the case of `CCSc1ccccc1O[C@@H](c1ccccc1)[C@@H]1CNCCO1` [Example 2, (S)-2-[(S)-(2-Ethylsulfanyl-phenoxy)-phenyl-methyl]-morpholine], the Ki was found to be 564 nM in test [1] and 6.3 nM in test [2].
On the same counts, the results for `CC(C)Cc1ccccc1O[C@@H](c1ccccc1)[C@@H]1CNCCO1` [Example 3, (S)-2-[(S)-(2-isobutyl-phenoxy)-phenyl-methyl]-morpholine] are 1580 nM and 33 nM.
With `Brc1ccccc1O[C@@H](c1ccccc1)[C@@H]1CNCCO1` [Example 4, (S)-2-[(S)-(2-Bromo-phenoxy)-phenyl-methyl]-morpholine], the Ki stood at 708 nM in test [1] and 1.6 nM in test [2].
In the case of `C=Cc1ccccc1O[C@@H](c1ccccc1)[C@@H]1CNCCO1` [Example 5, (S)-2-[(S)-Phenyl-(2-vinyl-phenoxy)-methyl]-morpholine], the Ki in test [1] came out at 1180 nM; in test [2], 13 nM.
For `COCc1ccccc1O[C@@H](c1ccccc1)[C@@H]1CNCCO1` [Example 7, (S)-2-[(S)-(2-Methoxymethyl-phenoxy)-phenyl-methyl]-morpholine], in that order: 6610 nM and 17 nM.
For `FC(F)(F)c1ccccc1O[C@@H](c1ccccc1)[C@@H]1CNCCO1` [Example 8, (S)-2-[(S)-Phenyl-(2-trifluoromethyl-phenoxy)-methyl]-morpholine], in that order: 4710 nM and 4.2 nM.
Consider `c1ccc(Cc2ccccc2O[C@@H](c2ccccc2)[C@@H]2CNCCO2)cc1` [Example 9, (S)-2-[(S)-(2-Benzyl-phenoxy)-phenyl-methyl]-morpholine], for which the Ki in test [1] is 967 nM; in test [2], 15 nM.
As for `N#Cc1ccccc1O[C@@H](c1ccccn1)[C@@H]1CNCCO1` [Example 22 (2S, 3S), (2S,3S)-2-(Morpholin-2-yl-pyridin-2-yl-methoxy)-benzonitrile], in test [2], the Ki stood at 12 nM.
